# According to patent US20120095108A1, “COMPOSITION CONTAINING MICROBIAL ZEAXANTHIN AND PREPARATION THEREOF” (Vigenent Inc., priority 2010, published 2012):
# Key:
# Type in all cases: cell-based
# [1] = MTT assay, non-cancer cells ARPE-19; details: human, ARPE-19 retinal pigmented epithelium cells (non-cancer), read-out: cell viability of non-cancer cells
# Method: (§1) Cancer cells were cultured on a dish, and the cells were treated with microbial zeaxanthin dissolved in dimethyl sulfoxide. After 24 hrs incubation, thiazolyl blue tetrazolium bromide was added to the cells and incubated for 4 hours. The medium was removed and the crystals were dissolved in dimethyl sulfoxide followed by measuring the absorbance at 590 nm. Cell viability=(Abs of cell treated zeaxanthin/Abs of cell with no treatment)*100%. Since xanthophylls have been reported to be associated with lower risk of cancers (Orjuela et al., (2005) Cancer Epidemiol Biomarkers Prey. 14:1433-40; Kelemen et al., (2006) Am J Clin Nutr. 83: 1401-10; Zhang et al., (2007) Nutr Cancer. 59:46-53; Tamimi et al., (2009) Cancer Res. 69: 9323-9; Lee et al., (2009) Cancer Epidemiol Biomarkers Prey. 18:1730-9), it is necessary to determine if the microbial zeaxanthin contains anti-cancer activity. […] For comparison, the cell viabilities of non-cancer cells are 105.6% for retinal pigmented epithelium cell (ARPE-19); 102.3% for embryonic fibroblast (BCRC60118) and 95.8% for human skin fibroblast (BCRC 60153). […] For comparison, the cell viabilities of non-cancer cells are 124.2% for retinal pigmented epithelium cell (ARPE-19); 101.2% for embryonic fibroblast (BCRC60118) and 99.8% for human skin fibroblast (BCRC 60153). […]
# [2] = system: choriocarcinoma (JAR); experiment: Anti-proliferation MTT assay, JAR; details: Homo sapiens, 24 hrs, read-out: cell viability
# Method: as §1
# [3] = system: thyroid squamous cell carcinoma (SW579); experiment: Anti-proliferation MTT assay, SW579; details: Homo sapiens, 24 hrs
# Method: as §1
# [4] = MTT assay, non-cancer cells BCRC 60153; details: human, skin fibroblast cells BCRC 60153 (non-cancer), read-out: cell viability of non-cancer cells
# Method: as §1
# [5] = MTT assay, non-cancer cells BCRC60118; details: human, embryonic fibroblast cells BCRC60118 (non-cancer), read-out: cell viability of non-cancer cells
# Method: as §1
# [6] = system: colorectal adenocarcinoma (LS123); experiment: Anti-proliferation MTT assay, LS123; details: Homo sapiens, 24 hrs, read-out: cell viability
# Method: as §1
# [7] = system: bladder primary carcinoma (5637); experiment: Anti-proliferation MTT assay, 5637; details: Homo sapiens, 24 hrs, read-out: cell viability
# Method: as §1
# [8] = system: pancreatic adenocarcinoma (BxPC-3); experiment: Anti-proliferation MTT assay, BxPC-3; details: Homo sapiens, 24 hrs, read-out: cell viability
# Method: as §1
# [9] = system: prostate carcinoma (PC-3); experiment: Anti-proliferation MTT assay, PC-3; details: Homo sapiens, 24 hrs, read-out: cell viability
# Method: as §1
# [10] = system: pharynx squamous cell carcinoma (FaDu); experiment: Anti-proliferation MTT assay, FaDu; details: Homo sapiens, 24 hrs
# Method: as §1
# [11] = system: gastric adenocarcinoma (AGS); experiment: Anti-proliferation MTT assay, AGS; details: Homo sapiens, 24 hrs, read-out: cell viability
# Method: as §1
# [12] = system: ovarian cancer (TOV-112D); experiment: Anti-proliferation MTT assay, TOV-112D; details: Homo sapiens, TOV112D, 24 hrs, read-out: cell viability
# Method: as §1
# [13] = system: breast adenocarcinoma (MCF7); experiment: Anti-proliferation MTT assay, MCF7; details: Homo sapiens, 24 hrs, read-out: cell viability
# Method: as §1
compound,measurement,setting,value
"CC1=C(/C=C/C(C)=C/C=C/C(C)=C/C=C/C=C(C)/C=C/C=C(C)/C=C/C2=C(C)C[C@@H](O)CC2(C)C)C(C)(C)C[C@H](O)C1 (stereo in doubt) [microbial zeaxanthin, 4-[18-(4-hydroxy-2,6,6-trimethyl-1-cyclohexenyl)-3,7,12,16-tetramethyl-octadeca-1,3,5,7,9,11,13,15,17-nonaenyl]-3,5,5-trimethyl-cyclohex-3-en-1-ol]","viability at 24 h, 30 μg/ml",[1]; 30 μg/ml,106%
same,"viability at 24 h, 60 μg/ml",[1]; 60 μg/ml,124%
same,viability at 30 µg/mL,[2]; 30 μg/ml,72.1%
same,viability at 60 µg/mL,[2]; 60 μg/ml,40%
same,viability at 30 µg/mL,[3]; 30 μg/ml,70.9%
same,viability at 60 µg/mL,[3]; 60 μg/ml,71.7%
same,"viability at 24 h, 30 μg/ml",[4]; 30 μg/ml,95.8%
same,"viability at 24 h, 60 μg/ml",[4]; 60 μg/ml,99.8%
same,"viability at 24 h, 30 μg/ml",[5]; 30 μg/ml,102%
same,"viability at 24 h, 60 μg/ml",[5]; 60 μg/ml,101%
same,viability at 30 µg/mL,"[6]; LS-123, 30 μg/ml",72.3%
same,viability at 60 µg/mL,"[6]; LS-123, 60 μg/ml",75.3%
same,viability at 30 µg/mL,[7]; 30 μg/ml,45.9%
same,viability at 60 µg/mL,[7]; 60 μg/ml,16.4%
same,viability at 30 µg/mL,[8]; 30 μg/ml,75.6%
same,viability at 60 µg/mL,[8]; 60 μg/ml,33.4%
same,viability at 30 µg/mL,[9]; 30 μg/ml,74%
same,viability at 60 µg/mL,[9]; 60 μg/ml,67.7%
same,viability at 30 µg/mL,[10]; 30 μg/ml,72.6%
same,viability at 60 µg/mL,[10]; 60 μg/ml,28.5%
same,viability at 30 µg/mL,[11]; 30 μg/ml,57.3%
same,viability at 60 µg/mL,[11]; 60 μg/ml,40.1%
same,viability at 30 µg/mL,[12]; 30 μg/ml,70.3%
same,viability at 60 µg/mL,[12]; 60 μg/ml,20.3%
same,viability at 30 µg/mL,[13]; 30 μg/ml,78.7%
same,viability at 60 µg/mL,[13]; 60 μg/ml,61.6%
